Source: patent publication US12378251B2, “Triazolopyrimidine compound and salt, composition and use thereof” (SHANGHAI INSTITUTE OF MATERIA MEDICA, CHINESE ACADEMY OF …, priority 2019, dated 2025)
Where two headings read alike, the source gives them in different places.

Columns and labels:
[1] = tested on: human colon cancer cells HCT-116; assay: Inhibition of proliferation of HCT-116 cells (SRB method); type: cell-based
Experimental: The inhibitory effects of the compounds on the proliferation of human colon cancer cells HCT-116 were detected by a sulforodamine B (SRB) method. The specific steps were as follows: HCT-116 cells in the logarithmic phase were seeded into a 96-well culture plate at a suitable density with 90 μL per well. After overnight cultivation, the compounds at different concentrations were added to act for 72 h, and a solvent control group (negative control) was set. After 72 h of the compounds acting on the cells, the effects of the compounds on cell proliferation were detected using the SRB method as follows. The culture solution was discarded, and 100 μL/well of 10% trichloroacetic acid (TCA) pre-cooled at 4° C. was added, fixed at 4° C. for 1 h, then washed with distilled water for 5 times, and naturally dried in the air; 100 μL/well of SRB (4 mg/ml) solution prepared by 1% glacial acetic acid was added, stained at room temperature for 15 minutes; the supernatant was removed, washed with 1% acetic acid for 5 times, and air dried; 150 μl/well of Tris (10 mM) solution was added, then left at room temperature for 15 minutes; finally, a full-wavelength microplate enzyme-labeled instrument SpectraMax 190 was used to read with a measurement wavelength of 560 nm. The inhibition rate (%) of the compound on tumor cell growth was calculated by the following formula: [formula]

[2] = biological target: NAE enzyme (human recombinant APPBP1/UBA3) (Homo sapiens (Human), UniProt Q8TBC4); assay: Inhibition of NAE enzyme activity at the molecular level (HTRF); type: biochemical
Experimental: Homogeneous Time-Resolved Fluorescence (HTRF) technology was used to detect the in vitro inhibitory effect of the compound on NAE enzyme activity. […] (7) the inhibition rate of the compound was calculated by the following formula: • a. […] IC50 was calculated with a GraphPad software.

[3] = HCT-116, 72 h, read-out: HCT-116 IC50* (μM)
[4] = HCT-116 cells, 72 h, SRB, read-out: HCT-116 IC50*

Sequence of NAE enzyme (human recombinant APPBP1/UBA3) (Q8TBC4 whole entry): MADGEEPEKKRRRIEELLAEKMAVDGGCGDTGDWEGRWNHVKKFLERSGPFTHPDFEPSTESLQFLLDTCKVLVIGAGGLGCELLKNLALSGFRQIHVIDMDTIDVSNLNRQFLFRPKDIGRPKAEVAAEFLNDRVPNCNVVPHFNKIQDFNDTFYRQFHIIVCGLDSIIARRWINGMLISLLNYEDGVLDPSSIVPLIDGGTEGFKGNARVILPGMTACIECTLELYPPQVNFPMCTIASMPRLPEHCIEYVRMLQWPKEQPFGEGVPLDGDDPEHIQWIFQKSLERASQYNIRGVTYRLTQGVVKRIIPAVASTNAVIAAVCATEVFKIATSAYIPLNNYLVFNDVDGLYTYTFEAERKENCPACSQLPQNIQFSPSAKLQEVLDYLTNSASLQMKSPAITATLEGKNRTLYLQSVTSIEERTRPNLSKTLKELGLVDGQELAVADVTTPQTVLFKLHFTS
Sequence of NAE enzyme (human recombinant APPBP1/UBA3) (Q13564 whole entry partner): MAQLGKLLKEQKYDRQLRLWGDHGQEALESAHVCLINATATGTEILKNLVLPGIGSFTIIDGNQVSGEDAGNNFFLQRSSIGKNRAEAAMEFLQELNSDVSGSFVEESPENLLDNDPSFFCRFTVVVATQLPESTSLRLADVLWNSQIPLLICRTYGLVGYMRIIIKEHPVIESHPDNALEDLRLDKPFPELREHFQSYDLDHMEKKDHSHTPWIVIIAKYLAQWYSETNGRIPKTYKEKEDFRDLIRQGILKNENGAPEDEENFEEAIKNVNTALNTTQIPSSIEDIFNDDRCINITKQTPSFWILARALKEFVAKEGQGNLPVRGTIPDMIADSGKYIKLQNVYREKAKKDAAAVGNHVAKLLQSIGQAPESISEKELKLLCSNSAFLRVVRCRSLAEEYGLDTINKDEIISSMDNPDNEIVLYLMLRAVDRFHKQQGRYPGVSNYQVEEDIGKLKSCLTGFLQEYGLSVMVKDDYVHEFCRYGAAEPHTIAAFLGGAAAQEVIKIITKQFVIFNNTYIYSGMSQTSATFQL

Row | IC50 [1, 4] [µM] | inhibition at 10 µM ([2]; 2 h; read-out: IR (10 μM)) [%] | Compound | IC50 [1, 3] [µM] | inhibition at 10 µM ([2]; 2 h, read-out: IR (10 μM)) [%] | IC50 ([2]; NAE enzyme activity, HTRF) [µM]
1 | – | – | NS(=O)(=O)OCC1CC(n2nnc3c(NCCc4cccs4)ncnc32)CC1O (stereo not drawn) [Compound S5] | > 100 | 95.2 | 0.1 to 1
2 | < 0.01 | 99.5 | NS(=O)(=O)OCC1CC(n2nnc3c(NCc4ccccc4F)ncnc32)CC1O (stereo not drawn) [Compound S2] | – | – | –
3 | > 100 | 98.3 | CCCCCCNc1ncnc2c1nnn2C1CC(O)C(COS(N)(=O)=O)C1 (stereo not drawn) [Compound S8] | – | – | –
4 | > 100 | 85.2 | NS(=O)(=O)OC[C@@H]1C[C@@H](n2nnc3c(N[C@@H]4C[C@H]4c4ccc(F)c(F)c4)ncnc32)CC1O (stereo partly drawn) [Compound S16] | – | – | –
5 | – | – | COC(=O)[C@H]1C=C[C@@H](Nc2ncnc3c2nnn3C2CC(O)C(COS(N)(=O)=O)C2)C1 (stereo partly drawn) [Compound S20] | > 100 | 84.8 | –
6 | > 100 | 57.8 | NS(=O)(=O)OCC1CC(n2nnc3c(Nc4cnc5ccccn45)ncnc32)CC1O (stereo not drawn) [Compound S19] | – | – | –
7 | 0.01 to 100 | 98.6 | NS(=O)(=O)OCC1CC(n2nnc3c(NCc4ccco4)ncnc32)CC1O (stereo not drawn) [Compound S4] | – | – | –
8 | 0.01 to 100 | 98.8 | NS(=O)(=O)OCC1CC(n2nnc3c(NCc4cccs4)ncnc32)CC1O (stereo not drawn) [Compound S3] | – | – | –
9 | – | – | NS(=O)(=O)OCC1CC(n2nnc3c(N[C@H]4CCc5ccccc54)ncnc32)CC1O (stereo partly drawn) [Compound S1] | < 0.01 | 99 | –
10 | > 100 | 48.2 | NS(=O)(=O)OCC1CC(n2nnc3c(NC4CCCC4)ncnc32)CC1O (stereo not drawn) [Compound S21] | – | – | –
11 | > 100 | 43.3 | NS(=O)(=O)OCC1CC(n2nnc3c(Nn4ccc5ccccc54)ncnc32)CC1O (stereo not drawn) [Compound S18] | – | – | –
12 | > 100 | 7.9 | NS(=O)(=O)OCC1CC(n2nnc3c(Nc4n[nH]c5ccccc45)ncnc32)CC1O (stereo not drawn) [Compound S17] | – | – | –
13 | > 100 | 91.4 | NS(=O)(=O)OCC1CC(n2nnc3c(N[C@H]4CC5(CCNCC5)c5ccccc54)ncnc32)CC1O (stereo partly drawn) [Compound S14] | – | – | –
14 | > 100 | 96.1 | NS(=O)(=O)OCC1CC(n2nnc3c(NCCCc4ccccc4)ncnc32)CC1O (stereo not drawn) [Compound S7] | – | – | 0.1 to 1
15 | – | – | NS(=O)(=O)OCC1CC(n2nnc3c(NCCc4ccccc4)ncnc32)CC1O (stereo not drawn) [Compound S6] | > 100 | 95.8 | –
16 | < 0.01 | 98.3 | NS(=O)(=O)OCC1CC(n2nnc3c(N[C@@H]4c5ccccc5C[C@@H]4O)ncnc32)CC1O (stereo partly drawn) [Compound S9] | – | – | –

Row | Compound | IC50 [1, 4] [µM] | inhibition at 10 µM ([2]; 2 h; read-out: IR (10 μM)) [%] | IC50 [1, 3] [µM] | inhibition at 10 µM ([2]; 2 h, read-out: IR (10 μM)) [%] | IC50 ([2]; NAE enzyme activity, HTRF) [µM]
17 | CN1CCC2(CC1)C[C@H](Nc1ncnc3c1nnn3C1CC(O)C(COS(N)(=O)=O)C1)c1ccccc12 (stereo partly drawn) [Compound S15] | 0.01 to 100 | 77 | – | – | 0.1 to 1
18 | NS(=O)(=O)OC[C@@H]1C[C@@H](n2ccc3c(N[C@H]4CCc5ccccc54)ncnc32)C[C@@H]1O [MLN4924, reference compound] | < 0.01 | – | – | 98.6 | –
